biological target: T1, histamine H4 receptor (Homo sapiens, UniProt Q9H3N8); experiment: H4 Membrane Binding Assay (3H-Histamine displacement); details: membranes of recombinant HEK293SFM cells, 10 nM 3H-Histamine, 1.5 hr at room temperature
T1 construct: expressed in transfected cells; host or cells: HEK293SFM cells (membrane preparation)
Procedure, shortened: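 Radioligand is [3H]-histamine; 1000× unlabeled ligand sets nonspecific binding. Receptor source: membrane pellets from HEK293SFM cells carrying human H4 or other histamine subtypes (human H1–H3, mouse H4), in 50 mM Tris-HCl pH 7.5. Filtration through PEI-treated GF/B filters, then scintillation counting.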

Compound	IC50 [nM]
CO[C@H]1CC[C@H](NC(=O)N2CCc3ccc(-c4cc(N5CCN(C)CC5)nc(N)n4)cc3C2)CC1 [Example 56, 7-[2-Amino-6-(4-methylpiperazin-1-yl)pyrimidin-4-yl]-N-(trans-4-methoxycyclohexyl)-3,4-dihydroisoquinoline-2(1H)-carboxamide]	210
CN1CCN(c2cc(-c3ccc4c(c3)CN(S(=O)(=O)c3ccccc3)CC4)nc(N)n2)CC1 [Example 4, 4-(4-Methylpiperazin-1-yl)-6-[2-(phenylsulfonyl)-1,2,3,4-tetrahydroisoquinolin-7-yl]pyrimidin-2-amine]	267
CN1CCN(c2cc(-c3ccc4c(c3)CN(C(=O)N(C)C3CCCCC3)CC4)nc(N)n2)CC1 [Example 81, 7-[2-Amino-6-(4-methylpiperazin-1-yl)pyrimidin-4-yl]-N-cyclohexyl-N-methyl-3,4-dihydroisoquinoline-2(1H)-carboxamide]	163
COCC1(NC(=O)N2CCc3ccc(-c4cc(N5CCN(C)CC5)nc(N)n4)cc3C2)CCCC1 [Example 94, 7-[2-Amino-6-(4-methylpiperazin-1-yl)pyrimidin-4-yl]-N-[1-(methoxymethyl)cyclopentyl]-3,4-dihydroisoquinoline-2(1H)-carboxamide]	149
COC(=O)NC(C)CC(=O)N1CCc2ccc(-c3cc(N4CCN(C)CC4)nc(N)n3)cc2C1 (stereo not shown) [Example 113, Methyl{3-[7-[2-amino-6-(4-methylpiperazin-1-yl)pyrimidin-4-yl]-3,4-dihydroisoquinolin-2(1H)-yl]-1-methyl-3-oxopropyl}carbamate]	147
CN1CCN(c2cc(-c3ccc4c(c3)CN(C(=O)N3CCCC3)CC4)nc(N)n2)CC1 [Example 9, 4-(4-Methylpiperazin-1-yl)-6-[2-(pyrrolidin-1-ylcarbonyl)-1,2,3,4-tetrahydroisoquinolin-7-yl]pyrimidin-2-amine]	301
CN1CCN(c2cc(-c3ccc4c(c3)CN(C(=O)CC3CCN(C(=O)C5CC5)CC3)CC4)nc(N)n2)CC1 [Example 72, 4-(2-{[1-(Cyclopropylcarbonyl)piperidin-4-yl]acetyl}-1,2,3,4-tetrahydroisoquinolin-7-yl)-6-(4-methylpiperazin-1-yl)pyrimidin-2-amine]	419
COC(=O)N1CCC(CC(=O)N2CCc3ccc(-c4cc(N5CCN(C)CC5)nc(N)n4)cc3C2)C1 (stereo not shown) [Example 118, Methyl 3-{2-[7-[2-amino-6-(4-methylpiperazin-1-yl)pyrimidin-4-yl]-3,4-dihydroisoquinolin-2(1H)-yl]-2-oxoethyl}pyrrolidine-1-carboxylate]	178
CC(NC(=O)N1CCc2ccc(-c3cc(N4CCN(C)CC4)nc(N)n3)cc2C1)c1cccnc1 (stereo not shown) [Example 126, 7-[2-Amino-6-(4-methylpiperazin-1-yl)pyrimidin-4-yl]-N-(1-pyridin-3-ylethyl)-3,4-dihydroisoquinoline-2(1H)-carboxamide]	569
CN1CCN(c2nc(N)nc3cc(C(=O)NC(C)(C)c4ccccc4)ccc23)CC1 [Example 23, 2-Amino-N-(1-methyl-1-phenylethyl)-4-(4-methylpiperazin-1-yl)quinazoline-7-carboxamide]	384
CN1CCN(c2nc(N)nc3cc(C(=O)NCCc4ccccc4)ccc23)CC1 [Example 37, 2-Amino-4-(4-methylpiperazin-1-yl)-N-(2-phenylethyl)quinazoline-7-carboxamide]	129
CN1CCN(c2nc(N)nc3cc(C(=O)NCC(=O)OCc4ccccc4)ccc23)CC1 [Example 132, Benzyl({[2-amino-4-(4-methylpiperazin-1-yl)quinazolin-7yl]carbonyl}amino)acetate]	139
CN1CCN(c2cc(-c3ccc4c(c3)CN(C(=O)N3CCC(F)(F)CC3)CC4)nc(N)n2)CC1 [Example 104, 4-{2-[(4,4-Difluoropiperidin-1-yl)carbonyl]-1,2,3,4-tetrahydroisoquinolin-7-yl}-6-(4-methylpiperazin-1-yl)pyrimidin-2-amine]	259

Now those with a lower IC50, led by results:

IC50 [nM]	Compound
105	C[C@@H](NC(=O)c1ccc2c(N3CCN(C)CC3)nc(N)nc2c1)c1ccc2ccccc2c1 [Example 21, (R)-2-Amino-4-(4-methylpiperazin-1-yl)-N-[1-(naphthalen-2-yl)ethyl]quinazoline-7-carboxamide]
83	CC(C(=O)N1CCc2ccc(-c3cc(N4CCN(C)CC4)nc(N)n3)cc2C1)C1CCCCC1 (stereo not shown) [Example 102, 4-[2-(2-Cyclohexylpropanoyl)-1,2,3,4-tetrahydroisoquinolin-7-yl]-6-(4-methylpiperazin-1-yl)pyrimidin-2-amine]
71	CCOC(=O)[C@H](CCc1ccccc1)NC(=O)c1ccc2c(N3CCN(C)CC3)nc(N)nc2c1 [Example 130, Ethyl (2S)-2-({[2-amino-4-(4-methylpiperazin-1-yl)quinazolin-7-yl]carbonyl}amino)-4-phenylbutanoate]
63	CC(NC(=O)c1ccc2c(N3CCN(C)CC3)nc(N)nc2c1)c1cccc(Oc2ncccc2C#N)c1 (stereo not shown) [Example 199, 2-Amino-N-(1-{3-[(3-cyanopyridin-2-yl)oxy]phenyl}ethyl)-4-(4-methylpiperazin-1-yl)quinazoline-7-carboxamide]
63	CN1CCN(c2cc(-c3ccc4c(c3)CN(C(=O)Nc3ccc(-c5ccccc5)cn3)CC4)nc(N)n2)CC1 [Example 91, 7-[2-Amino-6-(4-methylpiperazin-1-yl)pyrimidin-4-yl]-N-(5-phenylpyridin-2-yl)-3,4-dihydroisoquinoline-2(1H)-carboxamide]
58	CN1CCN(c2cc(-c3ccc4c(c3)CN(C(=O)Nc3nc(C(F)(F)F)cs3)CC4)nc(N)n2)CC1 [Example 50, 7-[2-Amino-6-(4-methylpiperazin-1-yl)pyrimidin-4-yl]-N-[4-(trifluoromethyl)-1,3-thiazol-2-yl]-3,4-dihydroisoquinoline-2(1H)-carboxamide]
55	CN1CCN(c2nc(N)nc3cc(C(=O)N[C@@H](Cc4ccc(-c5ccc(C#N)cn5)cc4)C(=O)N(C)C)ccc23)CC1 [Example 155, 2-Amino-N-[(1S)-1-[4-(5-cyanopyridin-2-yl)benzyl]-2-(dimethylamino)-2-oxoethyl]-4-(4-methylpiperazin-1-yl)quinazoline-7-carboxamide]
47	CN1CCN(c2cc(-c3ccc4c(c3)CN(C(=O)N[C@H]3C[C@@H]3c3ccccc3)CC4)nc(N)n2)CC1 (relative stereo) [Example 49, 7-[2-Amino-6-(4-methylpiperazin-1-yl)pyrimidin-4-yl]-N-(trans-2-phenylcyclopropyl)-3,4-dihydroisoquinoline-2(1H)-carboxamide]
46	COC(=O)c1ccc(Oc2cccc(CNC(=O)c3ccc4c(N5CCN(C)CC5)nc(N)nc4c3)c2)cc1 [Example 179, Methyl 4-{3-[({[2-amino-4-(4-methylpiperazin-1-yl)quinazolin-7-yl]carbonyl}amino)methyl]phenoxy}benzoate]
37	CC(Cc1ccc(OC2CCCC2)cc1)NC(=O)c1ccc2c(N3CCN(C)CC3)nc(N)nc2c1 (stereo not shown) [Example 143, 2-Amino-N-{2-[4-(cyclopentyloxy)phenyl]-1-methylethyl}-4-(4-methylpiperazin-1-yl)quinazoline-7-carboxamide]
26	CN1CCN(c2nc(N)nc3cc(C(=O)NC(Cc4ccc5c(c4)OC(F)(F)O5)C(=O)N(C)C)ccc23)CC1 (single isomer, unassigned) [Example 145B, 2-Amino-N-(3-(2,2-difluorobenzo[d][1,3]dioxol-5-yl)-1-(dimethylamino)-1-oxopropan-2-yl)-4-(4-methylpiperazin-1-yl)quinazoline-7-carboxamide]
25	COc1ccc(C#N)c(Oc2cccc(CNC(=O)c3ccc4c(N5CCN(C)CC5)nc(N)nc4c3)c2)c1 [Example 180, 2-Amino-N-[3-(2-cyano-5-methoxyphenoxy)benzyl]-4-(4-methylpiperazin-1-yl)quinazoline-7-carboxamide]
23	COc1ccc(C#N)c(Oc2cccc(CC(NC(=O)c3ccc4c(N5CCN(C)CC5)nc(N)nc4c3)C(=O)N(C)C)c2)c1 (stereo not shown) [Example 170, 2-Amino-N-[1-[3-(2-cyano-5-methoxyphenoxy)benzyl]-2-(dimethylamino)-2-oxoethyl]-4-(4-methylpiperazin-1-yl)quinazoline-7-carboxamide]
22	CN1CCN(c2cc(-c3ccc4c(c3)CN(C(=O)CC3(C#N)CCCC3)CC4)nc(N)n2)CC1 [Example 122, 1-{2-[7-[2-Amino-6-(4-methylpiperazin-1-yl)pyrimidin-4-yl]-3,4-dihydroisoquinolin-2(1H)-yl]-2-oxoethyl}cyclopentanecarbonitrile]
19	COc1cccc(-c2ccc(C[C@H](NC(=O)c3ccc4c(N5CCN(C)CC5)nc(N)nc4c3)C(=O)N(C)C)cc2)n1 [Example 153, 2-Amino-N-{(1S)-2-(dimethylamino)-1-[4-(6-methoxypyridin-2-yl)benzyl]-2-oxoethyl}-4-(4-methylpiperazin-1-yl)quinazoline-7-carboxamide]
10	CN1CCN(c2nc(N)nc3cc(C(=O)N[C@@H](Cc4ccc(-c5cccc(Cl)c5Cl)cc4)C(=O)N(C)C)ccc23)CC1 [Example 162, 2-Amino-N-[(1S)-1-[(2′,3′-dichlorobiphenyl-4-yl)methyl]-2-(dimethylamino)-2-oxoethyl]-4-(4-methylpiperazin-1-yl)quinazoline-7-carboxamide]
7.1	CC(NC(=O)c1ccc2c(N3CCN(C)CC3)nc(N)nc2c1)c1cccc(Oc2ccc(Cl)cc2C#N)c1 (stereo not shown) [Example 197, 2-Amino-N-{1-[3-(4-chloro-2-cyanophenoxy)phenyl]ethyl}-4-(4-methylpiperazin-1-yl)quinazoline-7-carboxamide]
6.6	Cc1cccc(Oc2cccc(CNC(=O)c3ccc4c(N5CCN(C)CC5)nc(N)nc4c3)c2)c1C#N [Example 189, 2-Amino-N-[3-(2-cyano-3-methylphenoxy)benzyl]-4-(4-methylpiperazin-1-yl)quinazoline-7-carboxamide]
